Laboratory results reported in US20170327786A1 (Biogen MA Inc., priority 2014, published 2017).
Read-outs that look alike come from different tables or passages of the source.

What was measured:
Cell Line B [1] = tested on: Cell Line B
Cell Line B [2] = tested on: Cell Line B; remark: listed apart in the source
Protocol: Cell Line B expressed the polypeptide Lingo. […] Feed medium was added daily from Day 1 to Day 15 to the cell culture. […] Initial cell density was one million cells (1e6).

Cell Line A = tested on: Cell Line A
Protocol: Cell Line A expressed the polypeptide Neublastin. […] Feed medium was added daily from Day 2 to Day 12 to the cell culture. […] Initial cell density was one million cells (1e6).

Cell Line B [3] = test: Alternative antioxidants as replacement for hypotaurine, Cell Line B waste accumulation and culture performance; assay type: cell-based
Protocol: Taurine is the by-product of hypotaurine metabolism. Therefore, cell culture performance when 8 mM taurine was added to the feed medium was compared to cell culture performance when 8 mM of hypotaurine was added to the feed medium. Initial cell density was one million cells (1e6).
Cysteamine is a precursor of hypotaurine. […] Initial cell density was one million cells (1e6). The effects of glutathione, another type of antioxidant, were also explored.

CHO cells = test: Fed-batch culture of CHO cells with GABA-supplemented feed medium; assay type: cell-based, Chinese hamster
Protocol: The impact of gamma-aminobutyric acid (GABA) levels in the culture on cell density (growth), viability, and lactate concentration was evaluated in CHO cells in a fed-batch process (FIG. 9).
Cryopreserved CHO cells were thawed and maintained in 500 mL, 1000 mL or 3000 mL shake flasks with 100 mL, 200 mL or 1000 mL working volumes using cell culture medium CM3 and were passaged every 2 to 4 days. For maintenance cultures, the incubator was controlled at 36° C. and 5% CO2. A 5 liter (L) glass Applikon vessels using Finesse TruBio DV controllers (Finesse Solutions, San Jose, Calif.) were used for the fed-batch process. Bioreactors were seeded with an initial working volume of 2.5 L at a constant seed. For the control process, feed medium, CF2b, was given on day 3, day 5 and daily thereafter (starting on day 6) until the day before harvest and culture termination. The control process lasted 15 days with harvest and culture termination on day 15. CF2b is designated as a complete feed, comprised of all necessary nutritional elements including glucose, amino acids, vitamins, and metals. For GABA culture, feed medium was supplemented with 8 mM of GABA. The GABA culture lasted 17 days with harvest and culture termination on day 17. The complete feed amount was calculated as a predetermined fixed percentage based on culture volume. Glucose is maintained by the feeding strategy above 2 g/L in general by the bolus feeds and is not limiting. Culture temperature was set at 35° C. and medium pH was controlled at 7.1±0.2 by the addition of either 1 M sodium carbonate or CO2 gas. Dissolved oxygen (DO) was maintained at 30% with air sparge, enriched with oxygen as necessary, through a drilled hole sparger. Agitation was maintained between 200 and 400 rpm throughout the culture to limit total gas flow. An air overlay was maintained between 0.005 and 0.02 gas volume flow per unit of liquid volume per minute (vvm).

Cell Line B [4] = test: Fed-batch culture of Cell Line B with hypotaurine feed medium; assay type: cell-based
Protocol: The control feed medium contained 0 mM hypotaurine. The hypotaurine feed medium contained 8 mM hypotaurine. […] The concentration of hypotaurine in the bioreactor on Day 16 was approximately 2.7 mM. […] Initial cell density was one million cells (1e6). The effects of hypotaurine were evident starting on Day 10.

[5] = 18 mM choline chloride feed medium vs control feed with 3 mM choline chloride
[6] = 9 mM choline chloride feed medium vs control feed with 3 mM choline chloride
[7] = feed medium supplemented with 8 mM GABA vs control
[8] = 8 mM hypotaurine feed medium vs control feed with 0 mM hypotaurine

## C[N+](C)(C)CCO.[Cl-] [Choline, choline chloride]
Cell Line B [1]; Day 6, high seed
  Effective Choline Conc.: 4.0 mM
Cell Line B [1]; high seed 8×10^6 vc/mL, after day 12
  culture viability crash: occurred after day 12
Cell Line B [2]; 18 mM choline chloride feed medium
  day from which the effects were evident: 9 days
Cell Line B [2]; [5]
  ammonium accumulation: lower
  viability: higher
Cell Line B [2]; 18 mM choline chloride feed medium vs control feed with 3 mM choline chloride, Lingo
  titer: slightly higher
Cell Line B [2]; 18 mM choline chloride feed medium vs control feed with 3 mM choline chloride, fed daily Day 1 to Day 15
  growth (cell density): higher
Cell Line B [2]; choline used alone, concentration in culture on Day 9, when effects became evident
  Day 9 (Effective) Choline Conc.: 4.65 mM
Cell Line A; 9 mM choline chloride feed medium
  day from which the effects were evident: 3 days
Cell Line A; [6]
  ammonium accumulation: lower
  viability: higher
Cell Line A; 9 mM choline chloride feed medium vs control feed with 3 mM choline chloride, Neublastin
  titer: higher
Cell Line A; 9 mM choline chloride feed medium vs control feed with 3 mM choline chloride, fed daily Day 2 to Day 12
  growth (cell density): higher
Cell Line A; concentration in culture on Day 3, when effects became evident
  Day 3 (Effective) Choline Conc.: 0.90 mM

## NCCS [Cysteamine, cysteamine]
Cell Line B [3]; 3 mM cysteamine/18 mM choline chloride in feed vs 8 mM hypotaurine and 18 mM choline chloride
  cell culture performance (growth, viability, ammonium concentration, titer) as replacement for hypotaurine: not able to serve as replacements for hypotaurine

## NCCCC(=O)O [GABA, Gamma-Aminobutyric Acid]
CHO cells; feed medium CF2b supplemented with 8 mM GABA vs unsupplemented control feed
  growth (viable cell density): higher
CHO cells; feed medium supplemented with 8 mM GABA
  delay of the onset of a high lactate phenotype compared to control: about 2 days
CHO cells; [7]
  lactate accumulation: lower
  viability: higher
CHO cells; feed medium supplemented with 8 mM GABA, control process lasted 15 days
  culture duration (harvest and culture termination): 17 days

## NCCS(=O)O [Hypotaurine, hypotaurine]
Cell Line B [4]; 8 mM hypotaurine feed medium
  day from which the effects were evident: 10 days
Cell Line B [4]; [8]
  ammonium accumulation: lower
  titer: higher
  viability: higher
Cell Line B [4]; 8 mM hypotaurine feed medium vs control feed with 0 mM hypotaurine, fed daily Day 1 to Day 15
  growth (cell density): higher
Cell Line B [4]; hypotaurine used alone, concentration in culture on Day 10, when effects became evident
  Day 10 (Effective) Hypotaurine Conc.: 2.5 mM

## N[C@@H](CCC(=O)N[C@@H](CS)C(=O)NCC(=O)O)C(=O)O [glutathione]
Cell Line B [3]; 1.3 mM glutathione/18 mM choline chloride in feed vs 8 mM hypotaurine and 18 mM choline chloride
  cell culture performance (growth, viability, ammonium concentration, titer) as replacement for hypotaurine: not able to serve as replacements for hypotaurine

## NCCS(=O)(=O)O [taurine]
Cell Line B [3]; 8 mM taurine in feed medium vs 8 mM hypotaurine in feed medium
  cell culture performance (growth, viability, ammonium concentration, titer) as replacement for hypotaurine: not able to serve as a replacement for hypotaurine
